Assays:
Format in all cases: in vivo, human
Nox2 = experiment: Serum Nox2 measured as soluble Nox2-derived peptide (sNox2dp) by ELISA, post-prandial cross-over study; settings: healthy subjects (n=20), 20 mg immediately before lunch, T120 (2 h after meal) vs T0
Method: (§1) The design was a randomized, double blind, placebo controlled, crossover study (FIG. 1). Participants were randomized to receive 20 mg of oleuropein or 20 mg of placebo immediately before a lunch. The randomization was carried out by a procedure based on a random numeric sequence. Placebo and active capsules were identical in appearance and both were odourless. The quality control on both capsules was performed confirming their safety. None of the participants were receiving any vitamin or antioxidant supplements, statin or antiplatelet drugs in the month preceding the beginning of the study. […] Participants were assessed at baseline (T0) and two hours after lunch (T120). Glycaemic profile, which included glucose, insulin, dipeptidyl-peptidase-4 (DPP-4) activity and glucagon-like peptide-(GLP-1) and oxidative stress, which included sNox2-dp, 8-iso-PGF2α and platelet p47phox phosphorylation, were analysed before and two hours after meal. […]
Serum Nox2 was measured as soluble Nox2-derived peptide (sNOX2dp) with an ELISA method, which was partly modified in comparison to that previously reported (Pignatelli et al., 2010; WO 2010142794 A1). […]
4) quantification of immobilized antibody enzyme conjugates by monitoring HRP activities in the presence of the substrate 3,3′,5,5′-tetramethylbenzidine (TMB). […] Values were expressed as pg/ml; intra-assay and inter-assay coefficients of variation were <10%.

8-iso-PGF2α = experiment: Serum isoprostanes (8-iso-PGF2α-III) enzyme immunoassay, post-prandial cross-over study; settings: healthy subjects (n=20), 20 mg immediately before lunch, T120 vs T0
Method: as §1, with “study. Others exclusion criteria were: i) presence of malignancy, ii) presence of chronic inflammatory diseases, iii) alcohol intake, iv) smoking, v) pregnant or breast-feeding, vi) age less than 18 years.” for “study.”
Serum isoprostanes (8-iso-PGF2α-III) were measured by the enzyme immunoassay method (DRG International) and expressed as pmol/L. Intra-assay and inter-assay coefficients of variation were <10%.

p47phox = experiment: Western blot analysis of platelet p47phox phosphorylation, post-prandial cross-over study; settings: healthy subjects (n=5), 20 mg immediately before lunch, T120 vs T0
Method: as §1
p47^phox phosphorylation was analysed in platelets prepared as previously described [13 Carnevale et al., 2014 a)]. […] Then, the membranes were incubated with goat anti-rabbit secondary antibody (Santa Cruz Biotechnology—Product Code sc2004, 1:5000) or with goat anti-mouse secondary antibody (Santa Cruz Biotechnology—Product Code sc2005, 1:5000) and then the immune complexes were detected by enhanced chemiluminescence substrate. […]

[1] = Serum glucose concentration, post-prandial cross-over study
Method: as §1, with “study. Others exclusion criteria were: i) presence of malignancy, ii) presence of chronic inflammatory diseases, iii) alcohol intake, iv) smoking, v) pregnant or breast-feeding, vi) age less than 18 years.” for “study.”
(§2) Glucose and insulin were measured in serum samples using ELISA commercial Kit (Arbor Assay and DRG International, respectively). Glucose values were expressed as mg/dl whereas insulin values were expressed as μIU/ml.

insulin = experiment: Serum insulin concentration, post-prandial cross-over study; settings: healthy subjects (n=20), 20 mg immediately before lunch, T120 vs T0
Method: as §1, with “study. Others exclusion criteria were: i) presence of malignancy, ii) presence of chronic inflammatory diseases, iii) alcohol intake, iv) smoking, v) pregnant or breast-feeding, vi) age less than 18 years.” for “study.”
as §2

GLP1 = experiment: Serum glucagon like peptide-1 (GLP1) concentration, post-prandial cross-over study; settings: healthy subjects (n=20), 20 mg immediately before lunch, T120 vs T0
Method: as §1, with “study. Others exclusion criteria were: i) presence of malignancy, ii) presence of chronic inflammatory diseases, iii) alcohol intake, iv) smoking, v) pregnant or breast-feeding, vi) age less than 18 years.” for “study.”
Commercial ELISA Kit (DRG International) was used for the quantitative determination of bioactive GLP1 (7-36) and (9-36) levels in serum. GLP1 values are expressed as pmol/L.

DPP-4 = experiment: Serum dipeptidyl peptidase-4 (DPP-4) activity, post-prandial cross-over study; settings: healthy subjects (n=20), 20 mg immediately before lunch, T120 vs T0
Method: as §1, with “study. Others exclusion criteria were: i) presence of malignancy, ii) presence of chronic inflammatory diseases, iii) alcohol intake, iv) smoking, v) pregnant or breast-feeding, vi) age less than 18 years.” for “study.”
DDP4 activity was evaluated in serum samples by a commercial assay (Sigma Aldrich). […] DDP4 activity was expressed as μU/ml, where one unit of DPP4 is the amount of enzyme that will hydrolyze the DPP4 substrate to yield 1.0 μmole of AMC per minute at 37° C.

In the case of `C/C=C1/[C@H](O[C@@H]2O[C@H](CO)[C@@H](O)[C@H](O)[C@H]2O)OC=C(C(=O)OC)[C@H]1CC(=O)OCCc1ccc(O)c(O)c1` [oleuropein], the “sNox2-dp, Δ change compared to baseline” value (Nox2) is reported as 25%, the “8-iso-PGF2α, Δ change compared to baseline” value (8-iso-PGF2α) is reported as 8% and the “platelet p47phox phosphorylation, Δ change compared to baseline” value (p47phox) is reported as 42%. For the same molecule, the “blood glucose, Δ change compared to baseline” value ([1]; healthy subjects (n=20), 20 mg immediately before lunch, T120 vs T0) was 2%, the “average reduction of glucose” value ([1]; healthy subjects, 20 mg versus placebo, post-prandial) was 14 mg/dL and the “blood insulin, Δ change compared to baseline” value (insulin) was 116%. The “GLP1, Δ change compared to baseline” value (GLP1) was 19% and the “DPP-4 activity, Δ change compared to baseline” value (DPP-4) was 35%.
